Experimental data from patent US9617260B2, “Inhibitors of bruton's tyrosine kinase” (Hoffmann-La Roche Inc., priority 2013, dated 2017).

target: Bruton's Tyrosine Kinase (BTK), inactivated state (Homo sapiens (Human), UniProt Q06187); assay: Bruton's Tyrosine Kinase (BTK) Inhibition TR-FRET (Time Resolved FRET) competition assay; assay type: binding; settings: competition with Kinase Tracer 178 for BTK-Eu; plates incubated 18-24 h at 14° C.
Procedure: Bruton's Tyrosine Kinase (BTK) Inhibition TR-FRET (Time Resolved FRET) Assay
This BTK competition assay measures compound potency (IC50) for the inactivated state of Bruton's Tyrosine Kinase using FRET (Förster/Fluoresence Resonance Energy Transfer) technology. The BTK-Eu complex was incubated on ice one hour prior to use at a starting concentration of 50 nM BTK-Bioease™: 10 nM Eu-streptavidin (Perkin-Elmer Catalog #AD0062). The assay buffer consisted of 20 mM HEPES (pH 7.15), 0.1 mM DTT, 10 mM MgCl2, 0.5 mg/ml BSA with 3% Kinase Stabilizer (Fremont Biosolutions, Catalog #STB-K02). After 1 h, the reaction mixture from above was diluted 10 fold in assay buffer to make 5 nM BTK: 1 nM Eu-Streptavidin complex (donor fluorophore). 18 μl of a mixture of 0.11 nM BTK-Eu and 0.11 nM Kinase Tracer 178 (Invitrogen, Catalog #PV5593,) with BTK-Eu alone as no negative control, was then dispensed into 384-well flat bottom plates (Greiner, 784076). Compounds to be tested in assay were prepared as 10× concentrations and serial dilution in half-log increments was performed in DMSO so as to generate 10 point curves. To initiate the FRET reaction, compounds prepared as 10× stock in DMSO was added to the plates and the plates were incubated 18-24 h at 14° C.
After the incubation the plates were read on a BMG Pherastar Fluorescent plate reader (or equivalent) and used to measure the emission energy from the europium donor fluorophore (620 nm emission) and the FRET (665 nm emission). The negative control well values were averaged to obtain the mean minimum. The positive “no inhibitor” control wells were averaged to obtain the mean maximum. Percent of maximal FRET was calculated using following equation: % max FRET=100×[(FSRcmpd−FSRmean min)/(FSRmean max−FSRmean min)]
where FSR=FRET Signal ratio. % Max FRET curves were plotted in Activity Base (Excel) and the IC50 (%), hill slope, z′ and % CV were determined The mean IC50 and standard deviation will be derived from duplicate curves (singlet inhibition curves from two independent dilutions) using Microsoft Excel.
Representative compound data for this assay are listed below in Table II.

Chain of Bruton's Tyrosine Kinase (BTK), inactivated state (Q06187 whole entry): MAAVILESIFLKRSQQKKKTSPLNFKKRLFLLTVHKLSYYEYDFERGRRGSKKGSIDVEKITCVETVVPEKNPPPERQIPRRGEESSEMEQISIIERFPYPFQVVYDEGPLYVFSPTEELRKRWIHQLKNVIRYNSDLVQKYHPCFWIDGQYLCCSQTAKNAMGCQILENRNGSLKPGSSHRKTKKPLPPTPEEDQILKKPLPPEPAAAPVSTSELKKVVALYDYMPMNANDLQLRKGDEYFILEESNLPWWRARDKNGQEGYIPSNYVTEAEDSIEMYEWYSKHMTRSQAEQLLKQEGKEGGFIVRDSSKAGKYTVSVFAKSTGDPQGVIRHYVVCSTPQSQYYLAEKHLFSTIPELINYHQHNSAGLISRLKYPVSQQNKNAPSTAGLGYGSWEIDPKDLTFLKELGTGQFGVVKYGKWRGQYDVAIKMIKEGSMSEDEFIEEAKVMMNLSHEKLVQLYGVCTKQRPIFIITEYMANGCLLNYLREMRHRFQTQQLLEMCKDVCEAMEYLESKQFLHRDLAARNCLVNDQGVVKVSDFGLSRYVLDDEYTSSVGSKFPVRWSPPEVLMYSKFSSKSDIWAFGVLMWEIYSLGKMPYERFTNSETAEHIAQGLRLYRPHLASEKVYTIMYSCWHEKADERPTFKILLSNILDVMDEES

Row | Structure (SMILES) | IC50
1 | CCC(=O)C(=O)N1CC=C(c2c[nH]c3ncc(NC(=O)OCc4ccccc4Cl)cc23)CC1 [Compound 25, (2-chlorophenyl)methyl N-[3-[1-(2-oxobutanoyl)-3,6-dihydro-2H-pyridin-4-yl]-1H-pyrrolo[2,3-b]pyridin-5-yl]carbamate] | 404 nM
2 | COCCC(=O)N(C)c1cccc(-c2c[nH]c3ncc(NC(=O)OC(C)C)cc23)c1 [Compound 7, propan-2-yl N-[3-[3-[3-methoxypropanoyl(methyl)amino]phenyl]-1H-pyrrolo[2,3-b]pyridin-5-yl]carbamate] | 880 nM
3 | C=C(C(=O)Nc1cccc(-c2c[nH]c3ncc(NC(=O)OCc4cccc(F)c4)cc23)c1)C(F)(F)F [Compound 18, (3-fluorophenyl)methyl N-[3-[3-[2-(trifluoromethyl)prop-2-enoylamino]phenyl]-1H-pyrrolo[2,3-b]pyridin-5-yl]carbamate] | 123 nM
4 | CC(C)CC(=O)C(=O)Nc1cccc(-c2c[nH]c3ncc(NC(=O)OCc4ccccc4)cc23)c1 [Compound 12, benzyl N-[3-[3-[(4-methyl-2-oxopentanoyl)amino]phenyl]-1H-pyrrolo[2,3-b]pyridin-5-yl]carbamate] | 285 nM
5 | C=CC(=O)N1CC=C(c2c[nH]c3ncc(NC(=O)OCc4ccccc4)cc23)CC1 [Compound 30, benzyl N-[3-(1-prop-2-enoyl-3,6-dihydro-2H-pyridin-4-yl)-1H-pyrrolo[2,3-b]pyridin-5-yl]carbamate] | 1.2 nM
6 | CCC(C)C(=O)C(=O)Nc1cccc(-c2c[nH]c3ncc(NC(=O)OCc4ccccc4)cc23)c1 (stereo not drawn) [Compound 11, benzyl N-[3-[3-[(3-methyl-2-oxopentanoyl)amino]phenyl]-1H-pyrrolo[2,3-b]pyridin-5-yl]carbamate] | 206 nM
7 | CN(C)C/C=C/C(=O)Nc1cccc(-c2c[nH]c3ncc(NC(=O)OCc4ccccc4)cc23)c1 [Compound 1, benzyl N-[3-[3-[[(E)-4-(dimethylamino)but-2-enoyl]amino]phenyl]-1H-pyrrolo[2,3-b]pyridin-5-yl]carbamate] | 7 nM
8 | C=CC(=O)Nc1cccc(-c2c[nH]c3ncc(NC(=O)OC(C)C)cc23)c1 [Compound 3, propan-2-yl N-[3-[3-(prop-2-enoylamino)phenyl]-1H-pyrrolo[2,3-b]pyridin-5-yl]carbamate] | 0.3 nM
9 | CC(C)(C)C(=O)C(=O)Nc1cccc(-c2c[nH]c3ncc(NC(=O)OCc4ccccc4)cc23)c1 [Compound 10, benzyl N-[3-[3-[(3,3-dimethyl-2-oxobutanoyl)amino]phenyl]-1H-pyrrolo[2,3-b]pyridin-5-yl]carbamate] | 100 nM
10 | CCC(=O)C(=O)Nc1cccc(-c2c[nH]c3ncc(NC(=O)OCc4ccccc4)cc23)c1 [Compound 4, benzyl N-[3-[3-(2-oxobutanoylamino)phenyl]-1H-pyrrolo[2,3-b]pyridin-5-yl]carbamate] | 8 nM
11 | C=CC(=O)N1CC(O)(c2c[nH]c3ncc(NC(=O)OCc4ccccc4)cc23)C1 [Compound 34, benzyl N-[3-(3-hydroxy-1-prop-2-enoylazetidin-3-yl)-1H-pyrrolo[2,3-b]pyridin-5-yl]carbamate] | 3.6 nM
12 | CC(=O)C(=O)Nc1cccc(-c2c[nH]c3ncc(NC(=O)OCc4ccccc4Cl)cc23)c1 [Compound 14, (2-chlorophenyl)methyl N-[3-[3-(2-oxopropanoylamino)phenyl]-1H-pyrrolo[2,3-b]pyridin-5-yl]carbamate] | 30 nM
13 | C=CC(=O)N1CCC(c2c[nH]c3ncc(NC(=O)OCc4ccccc4)cc23)CC1 [Compound 31, benzyl N-[3-(1-prop-2-enoylpiperidin-4-yl)-1H-pyrrolo[2,3-b]pyridin-5-yl]carbamate] | 0.6 nM
14 | CC(=O)C(=O)N1CC=C(c2c[nH]c3ncc(NC(=O)OCc4cccc(F)c4)cc23)CC1 [Compound 28, (3-fluorophenyl)methyl N-[3-[1-(2-oxopropanoyl)-3,6-dihydro-2H-pyridin-4-yl]-1H-pyrrolo[2,3-b]pyridin-5-yl]carbamate] | 210 nM
15 | CCC(=O)C(=O)N1CC=C(c2c[nH]c3ncc(NC(=O)OCc4cccc(F)c4)cc23)CC1 [Compound 26, (3-fluorophenyl)methyl N-[3-[1-(2-oxobutanoyl)-3,6-dihydro-2H-pyridin-4-yl]-1H-pyrrolo[2,3-b]pyridin-5-yl]carbamate] | 384 nM
16 | CC(=O)C(=O)N1CC=C(c2c[nH]c3ncc(NC(=O)OCc4cccc(C#N)c4)cc23)CC1 [Compound 29, (3-cyanophenyl)methyl N-[3-[1-(2-oxopropanoyl)-3,6-dihydro-2H-pyridin-4-yl]-1H-pyrrolo[2,3-b]pyridin-5-yl]carbamate] | 700 nM
17 | CC(=O)C(=O)N1CC=C(c2c[nH]c3ncc(NC(=O)OCc4ccccc4Cl)cc23)CC1 [Compound 24, (2-chlorophenyl)methyl N-[3-[1-(2-oxopropanoyl)-3,6-dihydro-2H-pyridin-4-yl]-1H-pyrrolo[2,3-b]pyridin-5-yl]carbamate] | 165 nM
18 | O=C(Nc1cnc2[nH]cc(-c3cccc(NC(=O)C(=O)c4ccccc4)c3)c2c1)OCc1ccccc1 [Compound 13, benzyl N-[3-[3-[(2-oxo-2-phenylacetyl)amino]phenyl]-1H-pyrrolo[2,3-b]pyridin-5-yl]carbamate] | 323 nM

More lines, in order of falling IC50, values ahead:

Row | IC50 | Structure (SMILES)
19 | 620 nM | CC(C)OC(=O)Nc1cnc2[nH]cc(-c3cccc(NC(=O)CC#N)c3)c2c1 [Compound 22, propan-2-yl N-[3-[3-[(2-cyanoacetyl)amino]phenyl]-1H-pyrrolo[2,3-b]pyridin-5-yl]carbamate]
20 | 287 nM | N#CC1(C(=O)Nc2cccc(-c3c[nH]c4ncc(NC(=O)OCc5ccccc5)cc34)c2)CC1 [Compound 21, benzyl N-[3-[3-[(1-cyanocyclopropanecarbonyl)amino]phenyl]-1H-pyrrolo[2,3-b]pyridin-5-yl]carbamate]
21 | 137 nM | CC(=O)C(=O)Nc1cccc(-c2c[nH]c3ncc(NC(=O)OCc4cccc(C#N)c4)cc23)c1 [Compound 20, (3-cyanophenyl)methyl N-[3-[3-(2-oxopropanoylamino)phenyl]-1H-pyrrolo[2,3-b]pyridin-5-yl]carbamate]
22 | 72 nM | C=C(C(=O)Nc1cccc(-c2c[nH]c3ncc(NC(=O)OCc4ccccc4)cc23)c1)C(F)(F)F [Compound 9, benzyl N-[3-[3-[2-(trifluoromethyl)prop-2-enoylamino]phenyl]-1H-pyrrolo[2,3-b]pyridin-5-yl]carbamate]
23 | 60 nM | CCC(=O)C(=O)Nc1cccc(-c2c[nH]c3ncc(NC(=O)OCc4ccccc4Cl)cc23)c1 [Compound 15, (2-chlorophenyl)methyl N-[3-[3-(2-oxobutanoylamino)phenyl]-1H-pyrrolo[2,3-b]pyridin-5-yl]carbamate]
24 | 49 nM | CCC(=O)C(=O)Nc1cccc(-c2c[nH]c3ncc(NC(=O)OC(C)C)cc23)c1 [Compound 8, propan-2-yl N-[3-[3-(2-oxobutanoylamino)phenyl]-1H-pyrrolo[2,3-b]pyridin-5-yl]carbamate]
25 | 43.7 nM | CC(=O)C(=O)Nc1cccc(-c2c[nH]c3ncc(NC(=O)OCc4cccc(F)c4)cc23)c1 [Compound 17, (3-fluorophenyl)methyl N-[3-[3-(2-oxopropanoylamino)phenyl]-1H-pyrrolo[2,3-b]pyridin-5-yl]carbamate]
26 | 42 nM | CCC(=O)C(=O)Nc1cccc(-c2c[nH]c3ncc(NC(=O)OCc4cccc(F)c4)cc23)c1 [Compound 16, (3-fluorophenyl)methyl N-[3-[3-(2-oxobutanoylamino)phenyl]-1H-pyrrolo[2,3-b]pyridin-5-yl]carbamate]
27 | 27 nM | C=CC(=O)N1CCC(c2c[nH]c3ncc(NC(=O)OC(C)C)cc23)CC1 [Compound 32, propan-2-yl N-[3-(1-prop-2-enoylpiperidin-4-yl)-1H-pyrrolo[2,3-b]pyridin-5-yl]carbamate]
28 | 24 nM | C=CC(=O)N(C)c1cccc(-c2c[nH]c3ncc(NC(=O)OC(C)C)cc23)c1 [Compound 6, propan-2-yl N-[3-[3-[methyl(prop-2-enoyl)amino]phenyl]-1H-pyrrolo[2,3-b]pyridin-5-yl]carbamate]
29 | 13 nM | CC(C)OC(=O)Nc1cnc2[nH]cc(-c3cccc(NC(=O)/C=C/CN(C)C)c3)c2c1 [Compound 5, propan-2-yl N-[3-[3-[[(E)-4-(dimethylamino)but-2-enoyl]amino]phenyl]-1H-pyrrolo[2,3-b]pyridin-5-yl]carbamate]
30 | 0.6 nM | C=CC(=O)N1C=C(c2c[nH]c3ncc(NC(=O)OCc4ccccc4)cc23)CCC1 [Compound 33, benzyl N-[3-(1-prop-2-enoyl-3,4-dihydro-2H-pyridin-5-yl)-1H-pyrrolo[2,3-b]pyridin-5-yl]carbamate]
